System: LuxO (D47E) transcriptional regulator, Vibrio cholerae O395
Test: PubChem AID 686936
Settings: stronger effect = lower value
[1] = PK/LDH coupled NADH A340, at 100 µM
[2] = PK/LDH coupled NADH A340, rate, at 1 µM
[3] = PK/LDH coupled NADH A340, rate, at 25 µM

Compound: O=C(Nc1nnc(-c2ccc3c(c2)OCCO3)o1)C1CCCCC1
- ATPase rate (delta OD340/min) [1]: 0.0424
- ATPase rate (delta OD340/min) [2]: 0.0644
- ATPase rate (delta OD340/min) [3]: 0.0279

Compound: Cc1ccc2cc3c(NC(=O)c4ccco4)nn(C)c3nc2c1
- ATPase rate (delta OD340/min) [1]: 0.00981
- ATPase rate (delta OD340/min) [2]: 0.0527
- ATPase rate (delta OD340/min) [3]: 0.0182

From PubChem BioAssay AID686936 (Broad Institute, 2013)
